Earlier results in patent US20050065094A1, “Use of telmisartan for the prevention and treatment of vascular headache” (Boehringer Ingelheim International GmbH, priority 2003, published 2005).

How the values were obtained:
[1] = system: patients suffering from migraine; settings: placebo-controlled crossover
[2] = system: patients having mild/moderate hypertension; settings: placebo-controlled

SMILES | tolerability profile [1] | incidence of headache [2]
CCOc1nc2cccc(C(=O)O)c2n1Cc1ccc(-c2ccccc2-c2nnn[nH]2)cc1 [candesartan] | good tolerability profile | 
CCCCC1=NC2(CCCC2)C(=O)N1Cc1ccc(-c2ccccc2-c2nnn[nH]2)cc1 [irbesartan] |  | significant reduction in the incidence of headache
